Here are results for one molecule from US6503948B2, “Method for prevention or treatment of acute allograft rejection and a pharmaceutical composition therefor” (Southern Research Institute, priority 1998, dated 2003).

Where “and” joins values, the source holds several entries; their conditions need not be identical. Identical values can stand only once.

The subject of the test is acute allograft rejection (heart graft, Fischer donor to Long-Evans recipient). Kind of test: Intra abdominal heterotopic cardiografting in rats with donor pretreatment; graft survival. In kind it is in vivo, rat. As for the experimental part: 1-(2-chloroethyl)-1-nitroso-3-(3-methylcyclohexyl)urea was administered 5 mg per donor rat at a dosage of 20 mg/kg 24 hours prior to removal of heart tissue for transplantation. Administration of the compound above results in survival of 25 days, 27 days, 30 days, 32 days, and greater than 60 days.
According to this experiment, the donor rats were Fischer strain and the recipients were Long-Evans strains. These strains are mismatched at the major histocompatibility antigenic site (Ag locus). In the experiment, intra abdominal heterotopic cardiografting was performed using a modification of techniques described by Ono and Lindsey, Improved Technique of Heart Transplantation In Rats, Journal of Thoracic and Cardiovascular Surgery, 57: 225 (1969) and Lee et al., Heterotopic Heart and Lung Transplantation in the Rat, American Journal of Pathology, 59: 279 (1970), the entire contents of the disclosures of both of which are hereby incorporated by reference.
According to this experiment, a total dose of 20 milligrams per kilogram of the above compound was administered to donor rats 24 hours prior to transplantation. According to this dosage regimen, survival was prolonged from 10 to 25-60 days. Survival for 60 days indicated permanent survival, in other words, while typically surviving 10 days, the rats lived for 25-60 days, with the rats living to 60 days having a permanent survival.

Turning to `CC1CCCC(NC(=O)N(CCCl)N=O)C1` (stereo not shown) [1-(2-chloroethyl)-1-nitroso-3-(3-methylcyclohexyl)urea], the survival was 25 days and 27 days and 30 days and 32 days and greater than 60 days and 25-60 days (5 mg per donor rat, 20 mg/kg, given to donor 24 hours prior to removal of heart tissue, Fischer donors, Long-Evans recipients, typical survival 10 days); “increase in survival” (recipients also treated with a single small dose of Cyclosporine A). The “median survival (considering dying rats only) versus the compound alone” value (donors treated with 20 mg/kg compound combined with 100 mg/kg methotrexate) is reported as “increase in median survival”. In addition, the “microscopic evaluation of hearts” value (rats surviving for 60 days, sacrificed after two years, donor dose 20 mg/kg) is “normal hearts”.
